Legend:
Assay type in all cases: cell-based
Target C CJ mRNA = assay: Gene panel canonical junction qPCR assay, Target C; conditions: decrease in CJ mRNA levels, RT-qPCR
Method: (§1) Compounds described herein were used to modulate RNA transcript abundance in cells. The expression of a target mRNA was measured by detecting the formation of an exon-exon junction in the canonical transcript (CJ). A compound mediated exon-inclusion event was detected by observing an increase in formation of a new junction with an alternative exon (AJ). Real-time qPCR assays were used to detect these splicing switches and interrogate the potency of various compounds towards different target genes. A high-throughput real time quantitative PCR (RT-qPCR) assay was developed to measure these two isoforms of the mRNA (CJ and AJ) for an exemplary gene, HTT, together with a control housekeeping gene, GAPDH or GUSB or PPIA, used for normalization. Briefly, the A673 or K562 cell line was treated with various compounds described herein (e.g., compounds of Formula (I)). After treatment, the levels of the HTT mRNA targets were determined from each sample of cell lysate by cDNA synthesis followed by qPCR.
(§2) The A673 cell line was cultured in DMEM with 10% FBS. Cells were diluted with full growth media and plated in a 96-well plate (15,000 cells in 100 ul media per well). The plate was incubated at 37° C. with 5% CO2 for 24 hours to allow cells to adhere. An 11-point 3-fold serial dilution of the compounds was made in DMSO then diluted in media in an intermediate plate. Compounds were transferred from the intermediate plate to the cell plate with the top dose at a final concentration of 10 uM in the well. Final DMSO concentration was kept at or below 0.25%. The cell plate was returned to the incubator at 37° C. with 5% CO2 for an additional 24 hours.
(§3) The K562 cell line was cultured in IMDM with 10% FBS. For K562, cells were diluted with full growth media and plated in either a 96-well plate (50,000 cells in 50 uL media per well) or a 384-well plate (8,000-40,000 cells in 45 uL media per well). An 11-point 3-fold serial dilution of the compounds were made in DMSO then diluted in media in an intermediate plate. Compound was transferred from the intermediate plate to the cell plate with the top dose at a final concentration of 10 uM in the well. Final DMSO concentration was kept at or below 0.25%. Final volume was 100 uL for 96-well plate and 50 uL for 384-well plate. The cell plate was then placed in an incubator at 37° C. with 5% CO2 for 24 hours.
(§4) The cells were then gently washed with 50 uL-100 uL cold PBS before proceeding to addition of lysis buffer. 30 uL-50 uL of room temperature lysis buffer with DNAse I (and optionally RNAsin) was added to each well. Cells were shaken/mixed thoroughly at room temperature for 5-10 minutes for lysis to take place and then 3 uL-5 uL of room temperature stop solution was added and wells were shaken/mixed again. After 2-5 minutes, the cell lysate plate was transferred to ice for RT-qPCR reaction setup. The lysates could also be frozen at −80° C. for later use.
(§5) In some cases, a direct lysis buffer was used. An appropriate volume of 3× lysis buffer (10 mM Tris, 150 mM NaCl, 1.5%-2.5% Igepal and 0.1-1 U/uL RNAsin, pH 7.4) was directly added to either K562 or A673 cells in media and mixed by pipetting 3 times. The plates were then incubated at room temperature with shaking/rocking for 20-50 minutes to allow for lysis to take place. After this time, the cell lysate plate was transferred to ice to set up for the RT-qPCR reactions. The lysates could also be frozen at −80° C. for later use.
(§6) To set up 10 uL RT-qPCR reactions, cell lysates were transferred to 384-well qPCR plates containing the master mix according to the table below. The plates were sealed, gently vortexed, and spun down before the run. The volumes were adjusted accordingly in some instances where the reaction was carried in 20 uL. The table below summarizes the components of the RT-qPCR reactions:
(§7) The RT-qPCR reaction was performed using a QuantStudio (ThermoFisher) under the following fast cycling conditions. […]

HTT mRNA = assay: RT-qPCR splicing assay for HTT mRNA isoforms (canonical junction CJ and alternative junction AJ); conditions: A673 or K562 cell line, 24 hours compound treatment; for IC50: decrease in CJ mRNA; for AC50: increase in AJ mRNA
Method: as §1
Cells-to-CT 1-step kit: ThermoFisher A25602, Cells-to-CT lysis reagent: ThermoFisher 4391851C, TaqMan™ Fast Virus 1-Step Master Mix: ThermoFisher 4444436 GAPDH: VIC-PL, ThermoFisher 4326317E (Assay: Hs99999905_m1)—used for K562/suspension cell lines GUSB: VIC-PL, ThermoFisher 4326320E (Assay: Hs99999908_m1)—used for K562/suspension cell lines PPIA: VIC-PL, ThermoFisher 4326316E (Assay: Hs99999904_m1)—used for A673/adherent cell lines
as §2, §3, §4
as §5, with “use. […]” for “use.”

HTT CJ mRNA = assay: Gene panel canonical junction qPCR assay, HTT; conditions: decrease in CJ mRNA levels, RT-qPCR
Method: as §1, §2, §3, §4, §5, §6, §7

SMN2 CJ mRNA = assay: Gene panel canonical junction qPCR assay, SMN2; conditions: decrease in CJ mRNA levels, RT-qPCR
Method: as §1, §2, §3, §4, §5, §6, §7

Row | Compound | IC50 (Target C CJ mRNA) [nM] | IC50 (HTT mRNA) [nM] | AC50 (HTT mRNA) [nM] | IC50 (HTT CJ mRNA) [nM] | IC50 (SMN2 CJ mRNA) [nM]
1 | c1cnn(-c2ccc3c(c2)COc2nc(N4CC5(CCNCC5)C4)ccc2-3)c1 [Compound 167] | > 10000 | > 10000 | > 10000 | > 10000 | > 10000
2 | CN(c1ccc2c(n1)OCc1cc(-n3cccn3)ccc1-2)C1CC(C)(C)NC(C)(C)C1 [Compound 148, N,2,2,6,6-pentamethyl-N-[8-(pyrazol-1-yl)-6H-isochromeno[3,4-b]pyridin-3-yl]piperidin-4-amine] | 1000 to 10000 | 1000 to 10000 | 1000 to 10000 | 1000 to 10000 | 100 to 1000
3 | CN(c1ccc2c(c1)CCOc1cc(-n3cccn3)ccc1-2)[C@@H]1C[C@H]2CC[C@@H](C1)N2 [Compound 113] | > 10000 | > 10000 | > 10000 | > 10000 | > 10000
4 | CN(c1ccc2c(n1)COc1cc(-c3cn[nH]c3)ccc1-2)[C@@H]1C[C@H]2CC[C@@H](C1)N2 [Compound 121, (1R,3S,5S)—N-methyl-N-[8-(1H-pyrazol-4-yl)-5H-chromeno[3,4-b]pyridin-3-yl]-8-azabicyclo[3.2.1]octan-3-amine] | 100 to 1000 | 100 to 1000 | 100 to 1000 | 100 to 1000 | 100 to 1000
5 | CN(c1ccc2c(n1)OCc1cc(-n3cccn3)ccc1-2)[C@@H]1C[C@H]2CCC[C@@H](C1)N2 [Compound 178] | 100 to 1000 | < 100 | < 100 | < 100 | < 100
6 | c1cc2c(cc1-c1cn[nH]c1)COc1nc(N[C@@H]3C[C@H]4CC[C@@H](C3)N4)cnc1-2 [Compound 143, (exo)-N-[8-(1H-pyrazol-4-yl)-6H-isochromeno[3,4-b]pyrazin-3-yl]-8-azabicyclo[3.2.1]octan-3-amine] | 100 to 1000 | 100 to 1000 | 100 to 1000 | 100 to 1000 | 100 to 1000
7 | CN(c1ccc2c(n1)OCc1cc(-n3nccn3)ccc1-2)[C@@H]1C[C@H]2CC[C@@H](C1)N2 [Compound 151] | 100 to 1000 | < 100 | < 100 | < 100 | < 100
8 | CN(c1ccc2c(n1)OCc1cc(-n3cccn3)ccc1-2)[C@H]1C[C@]2(C)CC[C@](C)(C1)N2 [Compound 180] | 100 to 1000 | < 100 | < 100 | < 100 | < 100
9 | CN(c1ccc2c(n1)OCCc1cc(-c3cn[nH]c3)ccc1-2)C1CC(C)(C)NC(C)(C)C1 [Compound 145] | 1000 to 10000 | > 10000 | > 10000 | > 10000 | 1000 to 10000
10 | CN(c1ccc2c(n1)OCc1cc(-n3ccnn3)ccc1-2)[C@@H]1C[C@H]2CC[C@@H](C1)N2 [Compound 152] | 100 to 1000 | 100 to 1000 | < 100 | 100 to 1000 | < 100
11 | CN(c1ccc2c(n1)OCc1cc(-n3cccn3)ccc1-2)C1CCNCC1 [Compound 175] | > 10000 | > 10000 | 1000 to 10000 | > 10000 | 1000 to 10000
12 | CN(c1ccc2c(n1)OCc1cc(-n3ccnc3)ccc1-2)[C@@H]1C[C@H]2CC[C@@H](C1)N2 [Compound 163] | 100 to 1000 | < 100 | < 100 | < 100 | < 100
13 | c1cnn(-c2ccc3c(c2)COc2nc(N4C[C@H]5CNC[C@H]5C4)ccc2-3)c1 [Compound 185] | > 10000 | > 10000 | > 10000 | > 10000 | 1000 to 10000
14 | Cc1cn(-c2ccc3c(c2)COc2nc(N(C)[C@@H]4C[C@H]5CC[C@@H](C4)N5)ccc2-3)cn1 [Compound 164] | 100 to 1000 | < 100 | < 100 | < 100 | < 100
15 | c1cnn(-c2ccc3c(c2)COc2nc(N[C@@H]4C[C@H]5CCC[C@@H](C4)N5)ccc2-3)c1 [Compound 190] | 100 to 1000 | < 100 | 100 to 1000 | < 100 | < 100
16 | CN1C[C@@H]2CN(c3ccc4c(n3)OCc3cc(-n5cccn5)ccc3-4)C[C@@H]2C1 [Compound 170] | > 10000 | 1000 to 10000 | 1000 to 10000 | 1000 to 10000 | 1000 to 10000
17 | c1cnn(-c2ccc3c(c2)OCCc2cc(N[C@@H]4C[C@H]5CC[C@@H](C4)N5)ccc2-3)c1 [Compound 139, (1R,3S,5S)—N-[5-(pyrazol-1-yl)-8-oxatricyclo [9.4.0.0^[2,7]]pentadeca-1(11),2(7),3,5,12,14-hexaen-13-yl]-8-azabicyclo [3.2.1] octan-3-amine] | > 10000 | > 10000 | > 10000 | > 10000 | > 10000
18 | CN(c1ccc2c(n1)OCCc1cc(-c3cn[nH]c3)ccc1-2)[C@@H]1C[C@H]2CC[C@@H](C1)N2 [Compound 146] | > 10000 | 1000 to 10000 | 1000 to 10000 | 1000 to 10000 | > 10000
19 | Cc1[nH]ncc1-c1ccc2c(c1)COc1nc(N(C)[C@@H]3C[C@H]4CC[C@@H](C3)N4)ccc1-2 [Compound 154] | 100 to 1000 | 100 to 1000 | 100 to 1000 | 100 to 1000 | 100 to 1000
20 | CC1(C)CC(Nc2ccc3c(n2)OCc2cc(-n4cccn4)ccc2-3)CC(C)(C)N1 [Compound 165] | 100 to 1000 | 100 to 1000 | 100 to 1000 | 100 to 1000 | < 100
21 | CN(c1ccc2c(n1)COc1cc(-n3cccn3)ccc1-2)C1CC(C)(C)NC(C)(C)C1 [Compound 125, N,2,2,6,6-pentamethyl-N-[8-(pyrazol-1-yl)-5H-chromeno[3,4-b]pyridin-3-yl]piperidin-4-amine] | > 10000 | > 10000 | > 10000 | > 10000 | > 10000
22 | CN(c1ccc2c(n1)OCc1cc(-n3cc(N)cn3)ccc1-2)[C@@H]1C[C@H]2CC[C@@H](C1)N2 [Compound 172] | 100 to 1000 | 100 to 1000 | 100 to 1000 | 100 to 1000 | < 100
23 | [2H]C([2H])([2H])N(c1ccc2c(n1)OCc1cc(-n3cccn3)ccc1-2)C1CC(C)(C)NC(C)(C)C1 [Compound 199] | > 10000 | 1000 to 10000 | 1000 to 10000 | 1000 to 10000 | 1000 to 10000
